Among the data in the CATMoS acute toxicity set (Mansouri et al. 2021) are GHS category values, retold here.

Where a SMILES comes first, the peptide text is derived from it. [ ]: non-standard residue; d: D form. pGlu = O=C1CC[C@@H](C(=O)O)N1; Thz = O=C(O)[C@@H]1CSCN1

This data set can be described thus: GHS categories as the set defines them, by LD50: 1 up to 5, 2 up to 50, 3 up to 300, 4 up to 2000, 5 above 2000 mg/kg. The following applies: rat; in vivo; po.

`COc1ccc2c(c1)CCN(c1ccccc1)C2c1ccc(OCCN2CCCC2)cc1` (stereo not drawn) showed a GHS category of 4.

With `CO[Si](CC(C)CC(C)(C)C)(OC)OC` (stereo not drawn), the GHS category is 5.

`CC(=O)c1ccc2c(c1)OCC(=O)N2C` yielded a GHS category of 5.

Consider `COC1(C)CCCCCCCCCCC1`, for which the GHS category was 5.

`CCN(CCCCCCOC(=O)c1ccc(OC)c(OC)c1)C1CCc2ccccc2C1` (stereo not drawn): the GHS category is listed as 5.

The compound `CCC/C=C/COC(C)=O` displayed a GHS category of 5.

For the compound `CS/C(C)=N/O`, the GHS category was determined as 4.

Turning to `CC(C)=CCN(CC=C(C)C)CCC(CCN(CC=C(C)C)CC=C(C)C)(C(N)=O)c1cccc2ccccc12`, the GHS category stood at 4.

`NCC(=O)N[C@@H](CCC(N)=O)C(=O)O` (H-Gly-Gln-OH) registered a GHS category of 5.

On to `Cn1nnnc1SCCCC(=O)NC1CCCCC1`, for which the GHS category came to 4.

For `C=C(C)CC1CCCCCCCCCCC1=O` (stereo not drawn), the GHS category was found to be 5.

The compound `CC(C)=CCN(CC=C(C)C)CCC(C#N)(CCN(CC=C(C)C)CC=C(C)C)c1cccc2ccccc12` returned a GHS category of 4.

Take `Cc1cc(CCCCCCCOc2ccc(C3=NCCO3)cc2)on1`: the GHS category is 5.

As to `O=C(O)c1cccc2cccc(-c3cccc4cccc(C(=O)O)c34)c12`, the GHS category was 5.

As to `CCCN(CCC)c1c([N+](=O)[O-])cc(C(C)C)cc1[N+](=O)[O-]`, the GHS category amounted to 5.

As to `O=C1NCCCN1`, the GHS category was 5.

As for `CC(=O)CC(=O)Nc1cc(C)c(NC(=O)CC(C)=O)cc1C`, the GHS category worked out at 5.

As to `CCC(c1ccc(O)cc1)C(C#N)c1ccc(O)cc1` (stereo not drawn), the GHS category came out at 5.

Consider `CCCCn1c(C)c(CC(=O)O)c2c1CC(C)(C)CC2=O`, for which the GHS category is reported as 5.

`COCCOCCOC(=O)C(=O)Nc1nc(-c2ccccc2)cs1` returned a GHS category of 5.

Consider `CCC(C)(C)c1ccc(OP(=O)(NC)OC)c(Cl)c1` (stereo not drawn), for which the GHS category was 3.

With `NCCC(=O)NC(Cc1cnc[nH]1)C(=O)O` (stereo not drawn), the GHS category came to 5.

The compound `COCCOCOCCOC` gave a GHS category of 5.

The compound `CC(C)(C)c1ccc2oc(-c3ccc(-c4nc5cc(C(C)(C)C)ccc5o4)s3)nc2c1` yielded a GHS category of 5.

With `CC(C)CC(=O)OCc1ccccc1`, the GHS category is given as 5.

With `COC(=O)c1ccc(C(=O)Nc2cc(Cl)ccc2Cl)cc1[N+](=O)[O-]`, the GHS category is reported as 4.

For the compound `CNC(=O)Oc1ccc(N(C)C)c(C)c1`, the GHS category stood at 2.

For the compound `CC/C=C\CCOC(=O)C(C)C`, the GHS category came to 5.

Compound `CN(C)C1C(=O)C(=C(O)NCN2CCCC2C(=O)O)C(=O)C2(O)C(=O)C3=C(O)c4c(O)cccc4C(C)(O)C3CC12` (stereo not drawn) gave a GHS category of 5.

`C=COCCCCCCCCCCCCCCCCCC` showed a GHS category of 5.

On to `CCC[C@H]1CC[C@H](c2ccc(O)cc2)CC1`, for which the GHS category is recorded as 5.

Turning to `COc1cc(OC)c2oc(C3(Cn4cncn4)OCCO3)cc2c1`, the GHS category is recorded as 4.

With `O=C(O)c1cc(C(=O)O)cc([N+](=O)[O-])c1`, the GHS category is 5.

`O=C(c1ccccc1)C1CCCCC1` had a GHS category of 5.

In the case of `C#CCON=CC1=CCCN(C)C1`, the GHS category stood at 3.

In the case of `CC(C)c1ccc(C(C)C)cc1`, the GHS category came to 5.

The compound `CCCC(=O)c1ccc2c(c1)OCC(=O)N2C` showed a GHS category of 5.

For `FC(F)(F)c1cccc(-n2nc(OCCN3CCCCC3)c3cccnc32)c1`, the GHS category was found to be 4.

Turning to `CC(C)(C)OOC(C)(C)C`, the GHS category turned out to be 5.

In the case of `NC(=O)Oc1ccc(Cl)cc1C(=O)Oc1ccc(Cl)cc1Cl`, the GHS category was 5.

With `C#CCOC(=O)Nc1nc(N2CC=CCC2)cc2nc(=O)on12`, the GHS category worked out at 5.

For the compound `FC(Cl)C(F)(F)C(F)(F)Cl` (stereo not drawn), the GHS category is listed as 5.

The compound `Cc1cccc2ncc(C(=O)NC34CC5CC(CC(C5)C3)C4)c(=O)n12` registered a GHS category of 3.

In turn, `C=CC(=O)OCCCCOc1ccc(C(=O)Oc2ccc(OC(=O)c3ccc(OCCCCOC(=O)C=C)cc3)c(C)c2)cc1` gave a GHS category of 5.

The compound `O=C(O)C1(O)c2ccccc2-c2ccc(Cl)cc21` (stereo not drawn) gave a GHS category of 5.

For `CC(C)CCCCCCCOCCCNCCCN`, the GHS category was 3.

`CC(C)=CCC(O)C1=CC(=O)c2c(O)ccc(O)c2C1=O` (stereo not drawn) displayed a GHS category of 4.

For `Cc1ccc(-c2c(Cl)nc(C#N)n2S(=O)(=O)N(C)C)cc1`, the GHS category came out at 5.

With `CC(=O)OC1CCC2(C)C(CCC3(C)C2C(=O)C=C2C4CC(C)(C(=O)O)CCC4(C)CCC23C)C1(C)C` (stereo not drawn), the GHS category came to 5.

Take `CC(=O)[C@@]1(O)CC[C@H]2[C@@H]3CCC4=CC(=O)CC[C@]4(C)C3=CC[C@@]21C`: the GHS category was found to be 5.

Consider `CCC/C=C/COC(=O)CC`, for which the GHS category is on record as 5.

`O=C(O)c1ccccc1C(=O)N1CCSC1` yielded a GHS category of 5.

For `O=C(O)c1cc(O)ccc1Nc1cccc(C(F)(F)F)c1`, the GHS category is given as 4.

Take `OC1(c2ccccc2)c2c(Cl)cccc2C2=NCCN21` (stereo not drawn): the GHS category was 4.

The compound `CCCCCCCC1CCCO1` (stereo not drawn) had a GHS category of 5.

In turn, `CC1CNCCN1SC=S` (stereo not drawn) yielded a GHS category of 5.

`O=C1c2ccc3c4ccc5c6c(ccc(c7ccc(c2c37)C(=O)N1CCc1ccccc1)c64)C(=O)N(CCc1ccccc1)C5=O` showed a GHS category of 5.

Compound `CC#CCC(C)[C@H](O)/C=C/C1[C@H](O)C[C@@H]2C/C(=C\CCCC(=O)O)C[C@H]12` (stereo partly drawn) displayed a GHS category of 3.

For the compound `CNC(=O)Oc1c(C(C)(C)C)cc(C)cc1C(C)(C)C`, the GHS category is reported as 5.

The compound `Cc1cc(C(=O)Nc2ccccc2C(F)(F)F)n[nH]1` yielded a GHS category of 5.

Take `CCCOC(=O)c1ccc(O)cc1`: the GHS category came to 5.

For the compound `CC(C)N1CCN(C(=O)c2ccc(OC(=O)C3CCCc4ccccc43)cc2)CC1` (stereo not drawn), the GHS category worked out at 5.

`Nc1cc(C(=O)NCC(O)CO)cc(C(=O)NCC(O)CO)c1` (stereo not drawn) yielded a GHS category of 5.

`CCc1oc2ccccc2c1C(=O)c1ccc(O)cc1` registered a GHS category of 5.

The compound `O=C1CC[C@@H](C(=O)N2CSC[C@H]2C(=O)O)N1` ([pGlu]-[Thz]-OH) returned a GHS category of 5.

In turn, `COc1c(Cl)ccc(B(O)O)c1F` had a GHS category of 5.

`CC12CCC3C(CC=C4C=C(N5CCCC5)CCC43C)C1CCC2=O` (stereo not drawn) had a GHS category of 5.

`COc1ccc(COC(=O)Cc2ccccc2)cc1` showed a GHS category of 5.

In turn, `CCCOc1ccc(Cl)c2c(=O)c3ccccc3sc12` showed a GHS category of 5.

`Cc1cnc2c(C(=O)O)c(Cl)ccc2c1`: the GHS category is 5.

As to `O=C(CC1Sc2ccccc2NC1=O)Nc1cccc(Cl)c1` (stereo not drawn), the GHS category came to 5.

With `Cn1c(=O)oc2ccc(Cl)cc21`, the GHS category was found to be 5.

As for `CCCCCCCCC(C)C(C)CCCCCCCC` (stereo not drawn), the GHS category is given as 5.

With `COc1cc(NC(=O)c2cc3ccccc3cc2O)c(OC)cc1Cl`, the GHS category is listed as 5.

As for `CNC(=O)C(=NNc1ccc(C)cc1)C(C)=O`, the GHS category is 5.

In turn, `CCOC(=O)CCC(C)=O` gave a GHS category of 5.

As to `CCCN(CCC)c1c([N+](=O)[O-])cc(S(C)(=O)=O)cc1[N+](=O)[O-]`, the GHS category is 5.

Turning to `CC1(C)S[C@@H]2[C@H](NC(=O)[C@H](NC(=O)N3CCN(S(C)(=O)=O)C3=O)c3ccccc3)C(=O)N2[C@H]1C(=O)O`, the GHS category amounted to 5.

In the case of `CCC(=O)C=CC1C(C)=CCCC1(C)C` (stereo not drawn), the GHS category is on record as 5.

On to `COC(=O)C(C)CCC(=O)N(C)C` (stereo not drawn), for which the GHS category amounted to 5.

Take `CCC(C(=O)NC(N)=O)c1ccccc1` (stereo not drawn): the GHS category is 5.

In the case of `O=S(=O)(O)c1ccc(Cl)cc1`, the GHS category is recorded as 4.

In the case of `CCCc1nc(C)c2c(=O)nc(-c3cc(S(=O)(=O)N4CCN(CC)CC4)ccc3OCC)[nH]n12`, the GHS category worked out at 5.

As for `C[C@@H]1CC[C@@]2(OC1)O[C@H]1[C@@H](O)[C@H]3[C@@H]4CC[C@H]5C[C@@H](O[C@@H]6O[C@H](CO)[C@H](O[C@@H]7O[C@H](CO)[C@@H](O)[C@H](O[C@@H]8OC[C@@H](O)[C@H](O)[C@H]8O)[C@H]7O[C@@H]7O[C@H](CO)[C@@H](O)[C@H](O[C@@H]8O[C@H](CO)[C@@H](O)[C@H](O)[C@H]8O)[C@H]7O)[C@H](O)[C@H]6O)[C@H](O)C[C@]5(C)[C@H]4CC[C@]3(C)[C@H]1[C@@H]2C`, the GHS category was found to be 3.

With `CCCCCOC(=O)CCCCC`, the GHS category amounted to 5.

Compound `O=C1CC(N2C(=O)c3ccccc3C2=O)CC(=O)N1CN1CCOCC1` gave a GHS category of 5.

The compound `CCOC(=O)Oc1ccc(C2(c3ccc(OC(=O)OCC)cc3)C(=O)Nc3c(C)cccc32)cc1` displayed a GHS category of 5.

Compound `CCCCCCCC/C=C\CCCCCCCCCCCC(N)=O` showed a GHS category of 5.

In turn, `C=CCN1C(=O)CCc2c(OCC(O)CN3CCC(Cc4ccccc4)CC3)cccc21` (stereo not drawn) registered a GHS category of 4.

Compound `COC(=O)c1ccc(C(=O)O)cc1[N+](=O)[O-]` came in with a GHS category of 5.

`O=C1CCc2c(cccc2OCCCN2CCC(Cc3ccccc3)CC2)N1`: the GHS category was 4.

Compound `CCC=CCCOC(=O)C(C)C` had a GHS category of 5.

As for `CCOC(=O)C(C)(C)Br`, the GHS category stood at 5.

As for `CC(C)(C)c1ccc(OC(=O)C2CCC(CN=C(N)N)CC2)cc1` (stereo not drawn), the GHS category worked out at 2.

`O=CCCc1ccccc1`: the GHS category was determined as 5.

With `Nc1ncnc2c1ncn2[C@@H]1O[C@H](COP(=O)(O)OP(=O)(O)OP(=O)(O)O)[C@@H](O)[C@H]1O`, the GHS category was found to be 5.

In turn, `C[C@@H]1C[C@H]2[C@@H]3CCC4=CC(=O)C=C[C@]4(C)[C@@]3(F)[C@@H](O)C[C@]2(C)[C@@]1(O)C(=O)CO` registered a GHS category of 5.

In turn, `COc1nc(C)nc(NC(=O)NS(=O)(=O)c2ccccc2OCCCl)n1` returned a GHS category of 5.

`COc1ccc(OC)c(C(O)CNC(=O)CN)c1` (stereo not drawn) displayed a GHS category of 2.

Compound `CCC(C)Cl` (stereo not drawn) displayed a GHS category of 5.

Consider `COC(OC)C(C)Cc1ccc(C(C)C)cc1` (stereo not drawn), for which the GHS category worked out at 5.

`CCC1(C)COC(Cn2cncn2)(c2cc3ccccc3o2)OC1` (stereo not drawn) returned a GHS category of 4.

Compound `CC(C)CCCCCCCCCCO` came in with a GHS category of 5.
